# Source: patent US11016101B2, “Simplified nuclei analysis platform and biomarker matrix that supports genotoxic mode of action determinations” (Litron Laboratories, Ltd., priority 2013, dated 2021)
# “Also recorded” adds a separate entry of the source. Counter-ions that a name gives are not always drawn. Like-named read-outs stand apart in the source and are kept apart here.
# Key:
# TK6 cells [1] = experiment: In vitro micronucleus assay (In Vitro MICROFLOW kit)
# Experimental: The in vitro micronucleus assay is a chromosomal damage test that is widely used to evaluate chemical and/or physical agents for clastogenic and aneugenic activity. […] Furthermore, in the usual conduct of the in vitro micronucleus assay, the discrimination of bona fide genotoxic activity as primarily occurring through a clastogenic or aneugenic mode of action is not readily obtained.
# For these experiments, each of the 20 chemicals was tested over closely spaced concentrations, 6 replicate wells per concentration. Three wells were used for the micronucleus analyses, and three wells were used for the several nuclear biomarker assessments of the type described in Example 1. Other endpoints of cytotoxicity were considered, including […], ethidium monoazide bromide (EMA) positive events as an indicator of membrane integrity, tetramethylrhodamine ethyl ester (TMRE) negative cells as an assessment of mitochondrial membrane potential, and ATP levels (using luciferase) as an assessment of overall cell health in the sample. […] Further details are described under Statistical Analyses, as well as Example 4 below.
# Those cytotoxicity evaluations were based on a conventional approach for assessing cytotoxicity in genotoxicity tests, that is, relative cell counts (which in the case of the flow cytometry-based In Vitro MICROFLOW® kit is accomplished by measuring nuclei to counting bead ratio or else nuclei to time ratio and expressing these values relative to the mean solvent control value). […] The remaining three wells per concentration were used to accomplish a series of nuclei biomarker readings according to the invention, as well as two other assessments of cytotoxicity—frequency of TMRE-negative cells and ATP levels (via Promega's CELL TITERGLO® kit).
# TK6 cells [2] = experiment: Nuclei to bead ratio (relative cell count, cytotoxicity) by flow cytometry; assay type: cell-based
# TK6 cells [3] = settings: human
# TK6 cells [4] = settings: human; remark: listed apart in the source
# Experimental: The TK6 cells used in these experiments were from American Type Tissue Collection (ATCC) (Manassas, Va.). Cells were maintained in culture medium at 37° C., 5% CO2, and in a humid atmosphere. Cells were maintained between approximately 1×10^4 and 1×10^6 cells/ml for routine passage.
# For these experiments, TK6 cells were treated with solvent (most often DMSO, 1% v/v) and a range of closely spaced test article concentrations. Treatments occurred in wells of a 96-well plate. At the start of treatment, cells were at 2×10^5/ml in a volume of 300 μl per well. Counting beads (PEAK FLOW™) were included in these cultures at a concentration of approximately 1 drop per 10 ml, and served as a means to derive relative nuclei to bead ratios (relative to solvent controls). Continuous treatment occurred for approximately 24 hrs, during which time plates were incubated at 37° C., 5% CO2, and in a humid atmosphere. Each test article concentration was studied in 3 to 6 replicate wells.
# The γH2AX endpoint described herein was studied 4 and/or 24-27 hrs after start of treatment. Each of the remaining endpoints were studied at the conclusion of the treatment period, that is 24 to 27 hrs after initiation of exposure to test article (which for this cell line corresponds to approximately 1.5 to 2.0 population doubling times).
# At the time of cell harvest (4 hrs and 24 to 27 hrs), cells were resuspended with gentle pipetting and 25 μl aliquots were transferred to wells of a 96 well plate containing 50 μl pre-aliquoted lysis solution.
# After incubation at room temperate for at least 5 minutes, samples were analyzed with a dual-laser flow cytometer, 488 nm and 633 nm excitation (FACSCanto II, BD Biosciences, San Jose, Calif.). Instrumentation settings and data acquisition/analysis were controlled with Diva software v6.1.3. […] The BD Biosciences High Throughput Sampler (HTS) attachment was used to automatically analyze each of the samples in the 96 well plate(s). For the majority of these endpoints and experiments, the stop mode was configured such that each well was analyzed for 5 seconds, which usually represented sufficient time to acquire at least 500 NAD-positive nuclei.
# Treatments occurred over a range of closely spaced concentrations.
# TK6 cells [5] = assay type: cell-based
# Experimental: This experiment highlights the ability of the invention to combine multiple nuclei-associated endpoints into one flow cytometric analysis. For this experiment, log-phase TK6 cells were treated with cisplatin over a wide range of concentrations and then incubated at 37° C. for 24 hours. Each concentration was studied in triplicate wells of a 96 well plate. After 24 hours, well contents were pipetted up and down several times to form homogenous suspensions, and 25 μl per well was added to wells of a new 96 well plate that contained 50 μl of working lysis/labeling/staining solution. This lysis/labeling/staining solution was comprised of 5 μl anti-γH2AX-Alexa® 488/ml, 1 μl anti-phospho-H3-PE/ml, 5 μl anti-cleaved PARP-Alexa® 647/ml, 5 μRNase/ml, […] Absolute Count Bead/50 μl
# TK6 cells [6] = experiment: Cleaved PARP-positive nuclei by flow cytometry; assay type: cell-based; settings: for PARP-Positive Nuclei (Fold-Increase): 24-27 hours, relative to Control
# From the text: (§1) This chemical was also observed to affect cleaved PARP and Caspase 3 levels in nuclei, as evidenced by the higher values of cleaved PARP- and Caspase 3-positive nuclei relative to solvent control wells.
# TK6 cells [7] = experiment: Cleaved caspase 3-positive nuclei by flow cytometry; assay type: cell-based; settings: for Caspase 3-Positive Nuclei (Fold-Increase): 24-27 hours, relative to Control
# From the text: as §1
# [8] = TK6 cells, continuous exposure 24-27 hrs, In Vitro MICROFLOW kits
# [9] = 24-27 hours after start of treatment
molecule,measurement,setting,value
COc1cc([C@@H]2c3cc4c(cc3[C@@H](O[C@@H]3O[C@@H]5CO[C@@H](C)O[C@H]5[C@H](O)[C@H]3O)[C@H]3COC(=O)[C@H]23)OCO4)cc(OC)c1O [etoposide],in vitro micronucleus results,TK6 cells [1],positive
tunicamycin,in vitro micronucleus results,TK6 cells [1]; [8],positive
O=c1[nH]cc(F)c(=O)[nH]1 [5-fluorouracil],in vitro micronucleus results,TK6 cells [1],positive
"COS(C)(=O)=O [MMS, methyl methanesulfonate]",nuclei to bead ratios (effect in words),TK6 cells [2],concentration-dependent reductions
same,Nuclei to Bead Ratio (% of Control),"TK6 cells [2]; human, 2.344 μg/ml",88 % of Control
same,Nuclei to Bead Ratio (% of Control),"TK6 cells [2]; human, 3.125 μg/ml",87 % of Control
same,Nuclei to Bead Ratio (% of Control),"TK6 cells [2]; human, 4.6875 μg/ml",83 % of Control
same,Nuclei to Bead Ratio (% of Control),"TK6 cells [2]; human, 6.25 μg/ml",78 % of Control
same,Nuclei to Bead Ratio (% of Control),"TK6 cells [2]; human, 9.375 μg/ml",64 % of Control
same,Nuclei to Bead Ratio (% of Control),"TK6 cells [2]; human, 12.5 μg/ml",58 % of Control
same,Phospho-H3+ Nuclei (Fold-Increase),TK6 cells [3]; 2.344 μg/ml,1.00 Fold-Increase
same,Phospho-H3+ Nuclei (Fold-Increase),TK6 cells [3]; 3.125 μg/ml,0.76 Fold-Increase
same,Phospho-H3+ Nuclei (Fold-Increase),TK6 cells [3]; 4.6875 μg/ml,0.67 Fold-Increase
same,Phospho-H3+ Nuclei (Fold-Increase),TK6 cells [3]; 6.25 μg/ml,0.71 Fold-Increase
same,Phospho-H3+ Nuclei (Fold-Increase),TK6 cells [3]; 9.375 μg/ml,0.76 Fold-Increase
same,Phospho-H3+ Nuclei (Fold-Increase),TK6 cells [3]; 12.5 μg/ml,0.65 Fold-Increase
same,in vitro micronucleus results,TK6 cells [1],positive
same,γH2AX Fluorescence (Fold-Increase),TK6 cells [4]; 2.344 μg/ml,3.13 Fold-Increase
same,γH2AX Fluorescence (Fold-Increase),TK6 cells [4]; 3.125 μg/ml,4.11 Fold-Increase
same,γH2AX Fluorescence (Fold-Increase),TK6 cells [4]; 4.6875 μg/ml,4.36 Fold-Increase
same,γH2AX Fluorescence (Fold-Increase),TK6 cells [4]; 6.25 μg/ml,4.92 Fold-Increase
same,γH2AX Fluorescence (Fold-Increase),TK6 cells [4]; 9.375 μg/ml,4.79 Fold-Increase
same,γH2AX Fluorescence (Fold-Increase),TK6 cells [4]; 12.5 μg/ml,4.80 Fold-Increase
COc1ccc(C2=N[C@@H](c3ccc(Cl)cc3)[C@@H](c3ccc(Cl)cc3)N2C(=O)N2CCNC(=O)C2)c(OC(C)C)c1 [nutlin-3],in vitro micronucleus results,TK6 cells [1]; [8],positive
CC/C(=C(/CC)c1ccc(O)cc1)c1ccc(O)cc1 [diethylstilbestrol],in vitro micronucleus results,TK6 cells [1]; [8],positive
"CC[C@]1(O)C[C@@H]2CN(CCc3c([nH]c4ccccc34)[C@@](C(=O)OC)(c3cc4c(cc3OC)N(C)[C@H]3[C@@](O)(C(=O)OC)[C@H](OC(C)=O)[C@]5(CC)C=CCN6CC[C@]43[C@@H]65)C2)C1 [Vinblastine, vinblastine]",nuclei to bead ratios (effect in words),TK6 cells [2],concentration-dependent reductions
same,Nuclei to Bead Ratio (% of Control),"TK6 cells [2]; human, 0.3 ng/ml",98 % of Control
same,Nuclei to Bead Ratio (% of Control),"TK6 cells [2]; human, 0.4 ng/ml",97 % of Control
same,Nuclei to Bead Ratio (% of Control),"TK6 cells [2]; human, 0.6 ng/ml",86 % of Control
same,Nuclei to Bead Ratio (% of Control),"TK6 cells [2]; human, 0.8 ng/ml",81 % of Control
same,Nuclei to Bead Ratio (% of Control),"TK6 cells [2]; human, 1.2 ng/ml",71 % of Control
same,Nuclei to Bead Ratio (% of Control),"TK6 cells [2]; human, 1.6 ng/ml",58 % of Control
same,Phospho-H3+ Nuclei (Fold-Increase),TK6 cells [3]; 0.3 ng/ml,.86 Fold-Increase
same,Phospho-H3+ Nuclei (Fold-Increase),TK6 cells [3]; 0.4 ng/ml,.86 Fold-Increase
same,Phospho-H3+ Nuclei (Fold-Increase),TK6 cells [3]; 0.6 ng/ml,1.23 Fold-Increase
same,Phospho-H3+ Nuclei (Fold-Increase),TK6 cells [3]; 0.8 ng/ml,2.11 Fold-Increase
same,Phospho-H3+ Nuclei (Fold-Increase),TK6 cells [3]; 1.2 ng/ml,4.85 Fold-Increase
same,Phospho-H3+ Nuclei (Fold-Increase),TK6 cells [3]; 1.6 ng/ml,5.41 Fold-Increase
same,in vitro micronucleus results,TK6 cells [1],positive
Nc1ccn([C@@H]2O[C@H](CO)[C@@H](O)[C@@H]2O)c(=O)n1 [arabinofuranosyl cytidine],in vitro micronucleus results,TK6 cells [1]; [8],positive
"N.N.[Cl][Pt][Cl] [Cisplatin, cisplatin]",absolute and relative nuclei counts (effect in words),TK6 cells [5],reduced in a cisplatin concentration-dependent manner
same,anti-cleaved PARP positive chromatin (effect in words),TK6 cells [5],increased in a cisplatin concentration-dependent manner
same,anti-phospho-H3 positive nuclei (effect in words),TK6 cells [5],reduced in a cisplatin concentration-dependent manner
same,other changes to cell cycle (effect in words),TK6 cells [5],accumulation of cells in the G2/M phase
same,shift in anti-γH2AX-associated fluorescence (effect in words),TK6 cells [5],increased in a cisplatin concentration-dependent manner
same,in vitro micronucleus results,TK6 cells [1],positive
[H]/N=C(/N)N/C(=N/[H])NCCc1ccccc1 [phenformin HCl],in vitro micronucleus results,TK6 cells [1]; [8],positive
CC[C@@]1(O)C(=O)OCc2c1cc1n(c2=O)Cc2cc3ccccc3nc2-1 [camptothecin],in vitro micronucleus results,TK6 cells [1]; [8],positive
"N#CC(C#N)=NNc1cccc(Cl)c1 [CCCP, carbonyl cyanide m-chlorophenyl hydrazone]",Nuclei to Bead Ratio (% of Control),"TK6 cells [2]; CCCP 3.125 μM, TK6 cells, 24-27 hours after start of treatment",79 % of Control
same,Nuclei to Bead Ratio (% of Control),"TK6 cells [2]; CCCP 4.6875 μM, TK6 cells, 24-27 hours after start of treatment",69 % of Control
same,Nuclei to Bead Ratio (% of Control),"TK6 cells [2]; CCCP 6.25 μM, TK6 cells, 24-27 hours after start of treatment",64 % of Control
same,Nuclei to Bead Ratio (% of Control),"TK6 cells [2]; CCCP 9.375 μM, TK6 cells, 24-27 hours after start of treatment",59 % of Control
same,Nuclei to Bead Ratio (% of Control),"TK6 cells [2]; CCCP 12.5 μM, TK6 cells, 24-27 hours after start of treatment",50 % of Control
same,nuclei to bead ratios (effect in words),"TK6 cells [2]; TK6 cells, range of closely spaced concentrations, 24-27 hours, indicative of fewer cells and therefore cytotoxicity",concentration-dependent reductions
same,cleaved PARP-positive nuclei relative to solvent control wells (effect in words),TK6 cells [6]; [9],higher values
same,PARP-Positive Nuclei (Fold-Increase),TK6 cells [6]; CCCP 3.125 μM,4.90 Fold-Increase
same,PARP-Positive Nuclei (Fold-Increase),TK6 cells [6]; CCCP 4.6875 μM,8.60 Fold-Increase
same,PARP-Positive Nuclei (Fold-Increase),TK6 cells [6]; CCCP 6.25 μM,12.1 Fold-Increase
same,PARP-Positive Nuclei (Fold-Increase),TK6 cells [6]; CCCP 9.375 μM,20.75 Fold-Increase
same,PARP-Positive Nuclei (Fold-Increase),TK6 cells [6]; CCCP 12.5 μM,34.45 Fold-Increase
same,cleaved Caspase 3-positive nuclei relative to solvent control (effect in words),TK6 cells [7]; [9],visibly increased; also recorded: higher values
same,Caspase 3-Positive Nuclei (Fold-Increase),TK6 cells [7]; CCCP 3.125 μM,2.63 Fold-Increase
same,Caspase 3-Positive Nuclei (Fold-Increase),TK6 cells [7]; CCCP 4.6875 μM,4.33 Fold-Increase
same,Caspase 3-Positive Nuclei (Fold-Increase),TK6 cells [7]; CCCP 6.25 μM,5.86 Fold-Increase
same,Caspase 3-Positive Nuclei (Fold-Increase),TK6 cells [7]; CCCP 9.375 μM,9.13 Fold-Increase
same,Caspase 3-Positive Nuclei (Fold-Increase),TK6 cells [7]; CCCP 12.5 μM,18.83 Fold-Increase
same,in vitro micronucleus results,TK6 cells [1]; [8],positive
NC(=O)NO [hydroxyurea],in vitro micronucleus results,TK6 cells [1],positive
COC(=O)Nc1nc2ccccc2[nH]1 [carbendazim],in vitro micronucleus results,TK6 cells [1],positive
C[C@@]1(CO)[C@H](O)CC[C@@]2(C)[C@H]1CC[C@H]1C[C@@H]3C[C@@]12CC[C@]3(O)CO [aphidicoline],in vitro micronucleus results,TK6 cells [1]; [8],positive
